Test results taken from patent publication US9221875B2, “Amphiphilic peptides for treatment of keratitis” (Agency for Science, Technology and Research, priority 2013, dated 2015).
Values after ≈ are worked out from the molar mass of the structure shown. Where two headings read alike, the source gives them in different places. Marks after values point to notes of the source that are not given here. Square brackets hold non-standard residues; d marks the D form. Peptide text beside a SMILES is read from it.

Legend:
S. epidermidis [1] = details: 18 h
E. coli [2] = details: 18 h
P. aeruginosa [3] = details: 18 h
C. albicans [4] = details: 42 h
S. aureus [5] = details: 18 h
[6] = test system: 5 microorganisms tested (S. epidermidis, S. aureus, E. coli, P. aeruginosa, C. albicans); experiment: Mean MIC over the panel and selectivity index (Example 1); assay type: cell-based
Experimental: Red blood cells suspension incubated with PBS was used as negative control.

S. aureus [7] = details: 18 h; remark: listed apart in the source
P. aeruginosa [8] = details: 18 h; remark: listed apart in the source
S. epidermidis [9] = details: 18 h; remark: listed apart in the source
rabbit red blood cells = assay type: cell-based; details: red cells of rabbit, 1 h
[10] = test system: 5 microorganisms tested (S. epidermidis, S. aureus, E. coli, P. aeruginosa, C. albicans); experiment: Mean MIC over the panel and selectivity index (Example 2)
C. albicans [11] = test system: C. albicans
E. coli [12] = details: 18 h; remark: listed apart in the source
C. albicans keratitis = experiment: Contact lens-associated C. albicans keratitis mouse model
[13] = topical eye drops, peptides 3000 mg/L, amphotericin B 1000 mg/L

Structure (SMILES) | MIC S. epidermidis (S. epidermidis [1]) [µg/mL] | MIC E. coli (E. coli [2]) [µg/mL] | MIC P. aeruginosa (P. aeruginosa [3]) [µg/mL] | MIC C. albicans (C. albicans [4]) [µg/mL] | MIC S. aureus (S. aureus [5]) [µg/mL] | MIC S. aureus (S. aureus [7]) [µg/mL] | MIC P aeruginosa (P. aeruginosa [8]) [µg/mL] | MIC C. albicans (C. albicans [11]) [µg/mL] | MIC E. coli (E. coli [12]) [µg/mL] | GM, geometric mean of MIC values for the 5 microorganisms tested [6] [µg/mL] | other results
CC[C@H](C)[C@H](N)C(=O)N[C@@H](CCCNC(=N)N)C(=O)N[C@H](C(=O)N[C@@H](CCCNC(=N)N)C(=O)N[C@H](C(=O)N[C@@H](CCCNC(=N)N)C(=O)N[C@H](C(=O)N[C@@H](CCCNC(=N)N)C(N)=O)[C@@H](C)CC)[C@@H](C)CC)[C@@H](C)CC [(IRIR)2-NH2] (H-IRIRIRIR-NH2; N-terminus assumed) | 3.9 (≈ 3.56 µM) | 7.8 (≈ 7.13 µM) | 7.8 (≈ 7.13 µM) | 15.6 (≈ 14.3 µM) | 31.3 (≈ 28.6 µM) | – | – | – | – | 13.3 | –
CC(C)[C@H](N)C(=O)N[C@@H](CCCNC(=N)N)C(=O)N[C@H](C(=O)N[C@@H](CCCCN)C(=O)N[C@H](C(=O)N[C@@H](CCCNC(=N)N)C(=O)N[C@H](C(=O)N[C@@H](CCCCN)C(N)=O)C(C)C)C(C)C)C(C)C [(VRVK)2-NH2] (H-VRVKVRVK-NH2; N-terminus assumed) | 62.5 (≈ 63.6 µM) | 250 (≈ 255 µM) | >500 | 15.6 (≈ 15.9 µM) | >500 | – | – | – | – | – | –
CC[C@H](C)[C@H](N)C(=O)N[C@@H](CCCNC(=N)N)C(=O)N[C@H](C(=O)N[C@@H](CCCCN)C(=O)N[C@H](C(=O)N[C@@H](CCCNC(=N)N)C(=O)N[C@H](C(=O)N[C@@H](CCCCN)C(N)=O)C(C)C)[C@@H](C)CC)C(C)C [(IRVK)2-NH2] (H-IRVKIRVK-NH2; N-terminus assumed) | 7.8 (≈ 7.72 µM) | 62.5 (≈ 61.9 µM) | 62.5 (≈ 61.9 µM) | 7.8 (≈ 7.72 µM) | 250 (≈ 247 µM) | – | – | – | – | 78.1 | –
CC[C@@H](C)[C@@H](N)C(=O)N[C@H](CCCNC(=N)N)C(=O)N[C@@H](C(=O)N[C@H](CCCCN)C(=O)N[C@@H](C(=O)N[C@H](CCCNC(=N)N)C(=O)N[C@@H](C(=O)N[C@H](CCCCN)C(=O)N[C@@H](C(=O)N[C@H](CCCNC(=N)N)C(=O)N[C@@H](C(=O)N[C@H](CCCCN)C(N)=O)C(C)C)[C@H](C)CC)C(C)C)[C@H](C)CC)C(C)C [IK12-all D, irvkirvkirvk-NH2] (H-[dI][dR][dV][dK][dI][dR][dV][dK][dI][dR][dV][dK]-NH2; N-terminus assumed) | – | – | – | – | – | 7.8 (≈ 5.18 µM) | 15.6 (≈ 10.4 µM) | 31.3 (≈ 20.8 µM) | 7.8 (≈ 5.18 µM) | – | MIC S. epidermidis (S. epidermidis [9]): 1.0 µg/mL (≈ 0.664 µM); HC10, haemolysis concentration 10%: lowest peptide concentration that induces ≧10% haemolysis (rabbit red blood cells): >125^e) mg L^−1; GM, geometric mean of MIC values for the 5 microorganisms tested [10]: 12.7 µg/mL; fold reduction in MIC values compared with the L-enantiomer ([10]; against the various bacteria): 2-4 fold
CC[C@@H](C)[C@@H](N)C(=O)N[C@H](CCCNC(=N)N)C(=O)N[C@@H](C(=O)N[C@H](CCCCN)C(=O)N[C@@H](C(=O)N[C@H](CCCNC(=N)N)C(N)=O)[C@H](C)CC)[C@H](C)CC [IK6-all D, irikir-NH2] (H-[dI][dR][dI][dK][dI][dR]-NH2; N-terminus assumed) | – | – | – | – | – | 250 (≈ 314 µM) | 125 (≈ 157 µM) | 15.6 (≈ 19.6 µM) | 62.5 (≈ 78.4 µM) | – | GM, geometric mean of MIC values for the 5 microorganisms tested [10]: 113.3 µg/mL
C[C@@H]1[C@H](O)[C@@H](C)/C=C/C=C/C=C/C=C/C=C/C=C/C=C/[C@H](O[C@@H]2O[C@H](C)[C@@H](O)[C@H](N)[C@@H]2O)C[C@@H]2O[C@](O)(C[C@@H](O)C[C@@H](O)[C@H](O)CC[C@@H](O)C[C@@H](O)CC(=O)O[C@H]1C)C[C@H](O)[C@H]2C(=O)O [amphotericin B, reference compound] | – | – | – | – | – | – | – | – | – | – | fungal cells eradicated from the biofilms compared to the untreated control group (C. albicans keratitis; C. albicans counts in mice cornea, agar plating): ~90%; depth of hyphal invasion into the cornea, PAS histology (C. albicans keratitis; [13]): reduced the maximal depth of hyphal invasion; resolution of the keratitis infection (eye appearance) (C. albicans keratitis; [13]): significant resolution of the keratitis infection; clinical scores of mice corneas (slit lamp) (C. albicans keratitis; topical eye drops, peptides 3000 mg/L, amphotericin B 1000 mg/L, P<0.01): significantly lower than that in the control group

More lines, main results first:

MIC S. epidermidis (S. epidermidis [1]) [µg/mL] | MIC E. coli (E. coli [2]) [µg/mL] | MIC P. aeruginosa (P. aeruginosa [3]) [µg/mL] | MIC C. albicans (C. albicans [4]) [µg/mL] | MIC S. aureus (S. aureus [5]) [µg/mL] | MIC S. aureus (S. aureus [7]) [µg/mL] | MIC P aeruginosa (P. aeruginosa [8]) [µg/mL] | MIC C. albicans (C. albicans [11]) [µg/mL] | MIC E. coli (E. coli [12]) [µg/mL] | Structure (SMILES) | GM, geometric mean of MIC values for the 5 microorganisms tested [6] [µg/mL] | other results
7.8 (≈ 6.64 µM) | 15.6 (≈ 13.3 µM) | 62.5 (≈ 53.2 µM) | 62.5 (≈ 53.2 µM) | 250 (≈ 213 µM) | – | – | – | – | N=C(N)NCCC[C@H](NC(=O)[C@H](Cc1ccccc1)NC(=O)[C@H](CCCCN)NC(=O)[C@H](Cc1ccccc1)NC(=O)[C@H](CCCNC(=N)N)NC(=O)[C@@H](N)Cc1ccccc1)C(=O)N[C@@H](Cc1ccccc1)C(=O)N[C@@H](CCCCN)C(N)=O [(FRFK)2-NH2] (H-FRFKFRFK-NH2; N-terminus assumed) | 79.7 | –
7.8 (≈ 5.86 µM) | 15.6 (≈ 11.7 µM) | 125 (≈ 93.9 µM) | 250 (≈ 188 µM) | 62.5 (≈ 47 µM) | – | – | – | – | N=C(N)NCCC[C@H](NC(=O)[C@H](Cc1c[nH]c2ccccc12)NC(=O)[C@H](CCCCN)NC(=O)[C@H](Cc1c[nH]c2ccccc12)NC(=O)[C@H](CCCNC(=N)N)NC(=O)[C@@H](N)Cc1c[nH]c2ccccc12)C(=O)N[C@@H](Cc1c[nH]c2ccccc12)C(=O)N[C@@H](CCCCN)C(N)=O [(WRWK)2-NH2] (H-WRWKWRWK-NH2; N-terminus assumed) | 92.2 | –
– | – | – | – | – | >500 | >500 | 250 (≈ 241 µM) | >500 | CC[C@@H](C)[C@@H](N)C(=O)N[C@@H](C(=O)N[C@H](CCCNC(=N)N)C(=O)N[C@H](CCCCN)C(=O)N[C@@H](C(=O)N[C@@H](C(=O)N[C@H](CCCNC(=N)N)C(=O)N[C@H](CCCCN)C(N)=O)[C@H](C)CC)[C@H](C)CC)[C@H](C)CC [Control-all D, iirkiirk-NH2] (H-[dI][dI][dR][dK][dI][dI][dR][dK]-NH2; N-terminus assumed) | – | MIC S. epidermidis (S. epidermidis [9]): >500 µg/mL; HC10, haemolysis concentration 10%: lowest peptide concentration that induces ≧10% haemolysis (rabbit red blood cells): >2000 mg/L
